Measurements: ChEMBL document CHEMBL1268944, “The antiplasmodial activity of norcantharidin analogs” (Bioorg Med Chem Lett, 2010)

Experiments:
Plasmodium falciparum [1] = assay: Antiplasmodial activity against chloroquine-resistant Plasmodium falciparum W2 assessed as inhibition of parasite LDH activity […] after 72 hrs by malstat reagent method; format: functional, organism-based; settings: W2, 72 h
[2] = Inhibition of human PP1 expressed in Escherichia coli BL21
Plasmodium falciparum [3] = assay: Antiplasmodial activity against chloroquine-sensitive Plasmodium falciparum D6 assessed as inhibition of parasite LDH activity after 72 hrs by malstat reagent method; format: functional, organism-based; settings: D6, 72 h
[4] = Inhibition of human PP2A expressed in Escherichia coli BL21
Plasmodium falciparum [5] = assay: Ratio of Norcantharidin IC50 to compound IC50 for chloroquine-sensitive Plasmodium falciparum D6; format: functional
[6] = Inhibition of human PP2A
Plasmodium falciparum [7] = assay: Ratio of Norcantharidin IC50 to compound IC50 for chloroquine-resistant Plasmodium falciparum W2; format: functional
[8] = Inhibition of human PP1

SMILES	IC50 (Plasmodium falciparum [1])	IC50 [2]	IC50 (Plasmodium falciparum [3])	IC50 [4]	Ratio IC50 (Plasmodium falciparum [5])	IC50 [6]	Ratio IC50 (Plasmodium falciparum [7])	IC50 [8]
O=C1OC(=O)C2C3CCC(O3)C12 (centres undefined) [DEMETHYL-CANTHARIDIN]	50 µM	2 µM	60 µM	0.4 µM	–	–	–	–
C=CCNC(=O)C1C(C(=O)O)[C@@H]2CC[C@H]1O2 (some centres undefined)	3 µM	–	3 µM	–	20	10 µM	20	40 µM
C[C@@]12C(=O)OC(=O)[C@]1(C)[C@H]1CC[C@@H]2O1 [CANTHARIDIN]	9 µM	1.8 µM	9 µM	0.2 µM	–	–	–	–
